Experiments:
ATP-low MCF7 cells = assay: 3D-mammosphere assay, drug sensitivity of ATP-low MCF7 sub-population; format: cell-based, human
Text: (§1) MCF7 cells in the ATP-high subpopulation show a multi-drug resistance phenotype. The 3D-mammosphere assay was used to explore the differential sensitivity of ATP-high and ATP-low MCF7 cell sub-populations to four different classes of drugs, using as a functional readout of drug-resistance. The drug classes include Tamoxifen, doxycycline, DPI, and Palbociclib.
(§2) Flow Cytometry after Vital Staining with ATP-Red 1: Human breast cancer cell lines were first grown either as a 2D-monolayer or as 3D-spheroids. Then the cells were collected and dissociated into a single-cell suspension, prior to analysis or sorting by flow-cytometry with a SONY SH800 Cell Sorter. Briefly, ATP-high and ATP-low sub-populations of cells were isolated after vital staining with the probe ATP-Red 1. The ATP-high and ATP-low cell sub-populations were selected by gating, within the ATP-Red 1 signal. Unless otherwise stated, cells with the lowest (bottom 5% or 10%) fluorescent signal, or the highest (top 5% or 10%) fluorescent signal, were collected as ATP-low and ATP-high, respectively. The cells outside the gates were discarded during sorting, due to the gate settings. However, such settings are often required to ensure high-purity during sorting. Data were analyzed with FlowJo 10.1 software.
(§3) 3D Anchorage Independent Growth Assay: A single cell suspension was prepared using enzymatic (lx Trypsin-EDTA, Sigma Aldrich, cat. #T3924), and manual disaggregation (25 gauge needle). Five thousand cells were plated with in mammosphere medium (DMEM-F12/B27/20ng/m1 EGF/PenStrep), under non-adherent conditions, in six wells plates coated with 2-hydroxyethylmethacrylate (poly-HEMA, Sigma, cat. #P3932). Cells were grown for 5 days and maintained in a humidified incubator at 37° C. at an atmospheric pressure in 5% (v/v) carbon dioxide/air. After 5 days, 3D spheroids with a diameter greater than 50 μm were counted using a microscope, fitted with a graticule eye-piece, and the percentage of cells which formed spheroids was calculated and normalized to one (1=100% MFE; mammosphere forming efficiency). Mammosphere assays were performed in triplicate and repeated three times independently.

ATP-high MCF7 cells = assay: 3D-mammosphere assay, drug sensitivity of ATP-high MCF7 sub-population; format: cell-based, human
Text: as §1, §2
as §3, with “Mammosphere assays were performed in triplicate and repeated three times independently.” left out

CC/C(=C(\c1ccccc1)c1ccc(OCCN(C)C)cc1)c1ccccc1 [Tamoxifen]
reduction of 3D-mammosphere formation (ATP-low MCF7 cells; ATP-low MCF7 cells (bottom 5%), 1 μM): ~40% | reduction of 3D-mammosphere formation (ATP-low MCF7 cells; ATP-low MCF7 cells (bottom 5%), 5 μM): > 90% | 3D-mammosphere formation, of the vehicle-treated control levels (ATP-high MCF7 cells; ATP-high MCF7 cells (top 5%), 5 μM): > 80%

c1ccc2c(c1)[I+]c1ccccc1-2 [DPI, diphenyleneiodonium]
reduction of 3D-mammosphere formation (ATP-low MCF7 cells; ATP-low cells, 100 nM): > 90% | reduction of 3D-mammosphere formation (ATP-high MCF7 cells; ATP-high cells, 100 nM): ~55%

CC(=O)c1c(C)c2cnc(Nc3ccc(N4CCNCC4)cn3)nc2n(C2CCCC2)c1=O [Palbociclib]
reduction of 3D-mammosphere formation (ATP-low MCF7 cells; ATP-low cells, 12.5 nM): ~75% | reduction of 3D spheroid formation (ATP-high MCF7 cells; ATP-high cells, 12.5 nM): -50%
